Laboratory results taken from ChEMBL document CHEMBL1909046, “DrugMatrix in vitro pharmacology data”.

How the values were obtained:
[1] = target: T1, Neuropeptide Y receptor type 1 (Homo sapiens, UniProt P25929); type: cell membranes, Membrane; conditions: sk-n-mc; also: in other assays of this panel Not Active means under 50% inhibition at 10 µM
T1 sequence (P25929 whole entry): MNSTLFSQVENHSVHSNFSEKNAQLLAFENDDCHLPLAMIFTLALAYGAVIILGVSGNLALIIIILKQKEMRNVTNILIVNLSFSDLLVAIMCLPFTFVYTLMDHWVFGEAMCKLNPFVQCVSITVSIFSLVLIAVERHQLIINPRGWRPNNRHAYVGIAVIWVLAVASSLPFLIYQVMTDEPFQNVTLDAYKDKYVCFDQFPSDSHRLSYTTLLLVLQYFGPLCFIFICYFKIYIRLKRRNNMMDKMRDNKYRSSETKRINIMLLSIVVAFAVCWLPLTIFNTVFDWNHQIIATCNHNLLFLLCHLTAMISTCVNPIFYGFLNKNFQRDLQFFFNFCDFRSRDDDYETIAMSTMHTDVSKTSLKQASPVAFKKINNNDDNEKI

[2] = target: Matrix metalloproteinase-9 (Homo sapiens, UniProt P14780); assay: biochemical; type: cell-based;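 also: inhibition of isolated MMP-9 enzyme activity toward a synthetic peptide substrate, from the DrugMatrix protease screening panel; in other assays of this panel Not Active means under 50% inhibition at 10 µM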
[3] = target: Delta-type opioid receptor (Homo sapiens, UniProt P41143); type: cell membranes, HEK293, Membrane; conditions: hek293; also: in other assays of this panel Not Active means under 50% inhibition at 10 µM
Substance-K receptor = target: T2, Substance-K receptor (Homo sapiens, UniProt P21452); type: cell membranes, CHO, Membrane; conditions: cho; also: in other assays of this panel Not Active means under 50% inhibition at 10 µM
T2 sequence (P21452 whole entry): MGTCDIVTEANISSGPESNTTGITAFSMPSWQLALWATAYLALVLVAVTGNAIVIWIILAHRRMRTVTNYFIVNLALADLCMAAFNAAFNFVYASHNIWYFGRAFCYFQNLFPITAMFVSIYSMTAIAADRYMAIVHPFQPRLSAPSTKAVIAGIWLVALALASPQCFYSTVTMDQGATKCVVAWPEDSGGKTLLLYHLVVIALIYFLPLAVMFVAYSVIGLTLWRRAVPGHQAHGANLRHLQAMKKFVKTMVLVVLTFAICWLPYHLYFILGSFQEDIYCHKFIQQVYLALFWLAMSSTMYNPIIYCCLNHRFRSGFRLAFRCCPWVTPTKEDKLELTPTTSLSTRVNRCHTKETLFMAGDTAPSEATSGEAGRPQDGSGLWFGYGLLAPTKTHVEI

[4] = target: Tyrosine-protein kinase Lck (Homo sapiens, UniProt P06239); assay: DRUGMATRIX: Protein Tyrosine Kinase, LCK enzyme inhibition (substrate: Poly(Glu:Tyr)); type: cell-based, Insect cells; conditions: insect cells; Not Active = under 50% inhibition at 10 µM
Endothelin-1 receptor = target: T3, Endothelin-1 receptor (Homo sapiens, UniProt P25101); type: cell membranes, CHO-K1, Membrane; conditions: cho-k1; also: in other assays of this panel Not Active means under 50% inhibition at 10 µM
T3 sequence (P25101 whole entry): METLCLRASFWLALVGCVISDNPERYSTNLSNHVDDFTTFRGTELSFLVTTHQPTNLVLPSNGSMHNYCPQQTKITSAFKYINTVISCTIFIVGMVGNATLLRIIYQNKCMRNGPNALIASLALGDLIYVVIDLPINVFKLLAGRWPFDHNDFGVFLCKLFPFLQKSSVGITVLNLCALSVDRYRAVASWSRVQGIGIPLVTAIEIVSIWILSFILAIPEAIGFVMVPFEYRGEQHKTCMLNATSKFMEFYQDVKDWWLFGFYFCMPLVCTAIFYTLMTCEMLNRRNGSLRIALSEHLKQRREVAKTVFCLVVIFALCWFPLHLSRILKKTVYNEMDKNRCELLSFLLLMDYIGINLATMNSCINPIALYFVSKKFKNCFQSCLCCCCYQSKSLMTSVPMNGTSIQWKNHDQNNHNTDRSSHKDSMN

Chain of Matrix metalloproteinase-9 (P14780 whole entry): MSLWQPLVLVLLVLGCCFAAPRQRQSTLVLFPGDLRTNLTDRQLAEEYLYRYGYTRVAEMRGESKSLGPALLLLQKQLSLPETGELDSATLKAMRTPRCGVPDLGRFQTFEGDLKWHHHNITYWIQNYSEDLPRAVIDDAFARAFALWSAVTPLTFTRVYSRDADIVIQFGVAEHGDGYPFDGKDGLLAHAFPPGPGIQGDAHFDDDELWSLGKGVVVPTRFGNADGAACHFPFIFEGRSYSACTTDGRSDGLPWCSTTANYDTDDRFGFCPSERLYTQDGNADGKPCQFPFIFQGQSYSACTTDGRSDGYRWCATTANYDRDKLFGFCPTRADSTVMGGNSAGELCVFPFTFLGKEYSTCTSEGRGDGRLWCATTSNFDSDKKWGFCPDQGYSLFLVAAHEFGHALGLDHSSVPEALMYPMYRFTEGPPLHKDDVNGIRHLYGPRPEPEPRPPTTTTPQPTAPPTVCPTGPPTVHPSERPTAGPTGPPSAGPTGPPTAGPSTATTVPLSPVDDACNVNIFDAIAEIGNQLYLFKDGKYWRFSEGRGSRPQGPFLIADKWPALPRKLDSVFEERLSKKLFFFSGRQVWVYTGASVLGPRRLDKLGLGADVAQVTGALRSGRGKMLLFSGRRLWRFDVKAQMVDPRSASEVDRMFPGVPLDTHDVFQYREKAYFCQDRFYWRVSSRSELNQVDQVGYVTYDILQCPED
Chain of Tyrosine-protein kinase Lck (P06239 whole entry): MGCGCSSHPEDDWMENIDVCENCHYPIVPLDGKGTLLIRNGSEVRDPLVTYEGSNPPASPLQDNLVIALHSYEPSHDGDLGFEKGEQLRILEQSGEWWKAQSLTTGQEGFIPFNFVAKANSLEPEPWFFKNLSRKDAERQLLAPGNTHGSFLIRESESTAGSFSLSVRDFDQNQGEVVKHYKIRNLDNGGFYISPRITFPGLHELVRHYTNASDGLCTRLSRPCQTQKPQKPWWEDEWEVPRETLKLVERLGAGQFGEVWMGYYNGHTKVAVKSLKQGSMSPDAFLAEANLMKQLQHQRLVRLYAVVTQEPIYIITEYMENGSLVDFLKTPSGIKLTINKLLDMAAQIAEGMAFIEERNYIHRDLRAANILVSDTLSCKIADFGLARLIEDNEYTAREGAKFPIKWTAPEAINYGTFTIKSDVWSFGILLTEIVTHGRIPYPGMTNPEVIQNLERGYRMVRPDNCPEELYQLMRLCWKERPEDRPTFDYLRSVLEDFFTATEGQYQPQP
Chain of Delta-type opioid receptor (P41143 whole entry): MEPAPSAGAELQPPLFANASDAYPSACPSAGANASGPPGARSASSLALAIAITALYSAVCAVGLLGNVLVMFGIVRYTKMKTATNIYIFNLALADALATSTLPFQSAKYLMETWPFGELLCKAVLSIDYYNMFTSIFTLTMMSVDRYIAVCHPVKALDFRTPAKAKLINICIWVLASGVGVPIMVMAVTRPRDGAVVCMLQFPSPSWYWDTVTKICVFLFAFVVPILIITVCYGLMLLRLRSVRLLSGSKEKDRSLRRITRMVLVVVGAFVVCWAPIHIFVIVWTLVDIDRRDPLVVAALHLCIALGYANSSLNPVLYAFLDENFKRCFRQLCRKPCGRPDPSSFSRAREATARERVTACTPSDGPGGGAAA

CCCc1nn(C)c2c(=O)[nH]c(-c3cc(S(=O)(=O)N4CCN(C)CC4)ccc3OCC)nc12
Not Active: IC50 [1] | IC50 [2] | IC50 [3] | IC50 (Substance-K receptor) | IC50 [4] | IC50 (Endothelin-1 receptor)

Nc1nc2c(c(=O)[nH]1)N(C=O)C(CNc1ccc(C(=O)N[C@@H](CCC(=O)O)C(=O)O)cc1)CN2 (stereo not given in full) [LEUCOVORIN]
Not Active: IC50 [1] | IC50 [2] | IC50 [3] | IC50 (Substance-K receptor) | IC50 [4] | IC50 (Endothelin-1 receptor)

CCS(=O)(=O)CCn1c([N+](=O)[O-])cnc1C [TINIDAZOLE]
Not Active: IC50 [1] | IC50 [2] | IC50 [3] | IC50 (Substance-K receptor) | IC50 [4] | IC50 (Endothelin-1 receptor)

C#CCN(C)[C@H](C)Cc1ccccc1 [SELEGILINE]
Not Active: IC50 [1] | IC50 [2] | IC50 [3] | IC50 (Substance-K receptor) | IC50 [4] | IC50 (Endothelin-1 receptor)

COc1cc(C(=O)NS(=O)(=O)c2ccccc2C)ccc1Cc1cn(C)c2ccc(NC(=O)OC3CCCC3)cc12 [ZAFIRLUKAST]
Not Active: IC50 [1] | IC50 [2] | IC50 [3] | IC50 (Substance-K receptor) | IC50 [4] | IC50 (Endothelin-1 receptor)

STANNOUS FLUORIDE
Not Active: IC50 [1] | Ki [1] | IC50 [2] | Ki [2] | IC50 [3] | Ki [3] | IC50 (Substance-K receptor) | Ki (Substance-K receptor) | IC50 [4] | Ki [4] | IC50 (Endothelin-1 receptor) | Ki (Endothelin-1 receptor)

C[C@]12CC[C@H]3[C@@H](CCC4=CC(=O)CC[C@@]43C)[C@@H]1CC[C@@H]2O [TESTOSTERONE]
Not Active: IC50 [1] | IC50 [2] | IC50 [3] | IC50 (Substance-K receptor) | IC50 [4] | IC50 (Endothelin-1 receptor)

CN1C2CCCC1CC(NC(=O)c1nn(C)c3ccccc13)C2 (stereo not given) [GRANISETRON]
Not Active: IC50 [1] | IC50 [2] | IC50 [3] | IC50 (Substance-K receptor) | IC50 [4] | IC50 (Endothelin-1 receptor)

COc1ccc(/C=C/C(=O)Nc2ccccc2C(=O)O)cc1OC
Not Active: IC50 [1] | IC50 [2] | IC50 [3] | IC50 (Substance-K receptor) | IC50 [4] | IC50 (Endothelin-1 receptor)
